Experimental data as given in US7160916B2, “Method of increasing bone density or treating osteoporosis” (Yung Shin Pharmaceutical Ind. Co., Ltd., priority 2003, dated 2007).

How the values were obtained:
[1] = system: ovariectomized adult female rats; test: Biomechanical three-point bending test of femurs of OVX rats; assay type: in vivo, rat
Procedure: Ovariectomy and cut of sciatic nerve: Ovariectomy and cut of sciatic nerve were performed in adult female and male rats (3 month-old), respectively. After surgery, the rats were injected with Indazole 1 (i.p., 1 mg/Kg) or a vehicle daily for 4 weeks. On the day following the last injection, the rats were sacrificed and their tibia and femur were removed. Biomechanical three-point bending test: Mechanical properties of bone tissues were measured via a three-point bending test using a MTS-858 testing machine (MTS System Inc., Minneapolis, Minn.). The span of two support points was 20 millimeters and the deformation rate was 1 mm/min. Load/deformation curves were acquired by Team 490 software (version 4.10, Nicolet Instrument Technologies Inc., Madison, Wis.). Sigma Plot 6.0 software (SPSS Inc., Chicago, Ill.) was used to calculate extrinsic material properties of bone samples, including maximal load, ultimate load, energy to maximal load, energy to ultimate load, and linear stiffness. Energy to maximal load and energy to ultimate load were calculated as the areas under the load/deforming curves. Stiffness was calculated as the slope of the linear portion of the load/deformation curves. The cross-sectional moment of inertia was calculated under the assumption that the cross-sections were elliptically shaped (Turner et al., The effects of fluoridated water on bone strength. Orthop Res (1992) 10: 581–587). Maximal stress, ultimate stress, and elastic modulus (Young's modulus) were calculated using the methods described in Turner et al., Basic biomechanical measurements of bone: a tutorial, Bone (1993) 14:595–608.

α5 and β1 integrins = test: Flow cytometry of surface expression of integrins; assay type: cell-based, rat; details: treatment for 24 hr
Procedure: Fibronectin (Fn) plays an important role in the regulation of adhesion, migration, and maturation of osteoblasts. Fn fibrillogenesis is involved in the process of bone mineralization. The effect of Indazole 1 on Fn fibrillogenesis in cultured osteoblasts was examined. The immobilized form of fibrillogenesis from the endogenously released Fn by monolayer Day 3˜5 osteoblasts was studied using immunocytochemistry. Incubation of Day-3 osteoblasts with Indazole 1 (10 μM) for 24 hr increased extracellular Fn assembly. Flow cytometry was used to analyze the effect of Indazole 1 on the surface expression of α5 and β1 integrins. […] On the other hand, the collagen synthesis was increased by Indazole 1 only at a higher concentration of 10 μM.

[2] = femurs, OVX rats, i.p. 1 mg/kg daily for 4 weeks

Work on `OCc1ccc(-c2nn(Cc3ccccc3)c3ccccc23)o1` [Indazole 1, 1-benzyl-3-(5′-hydroxymethyl-2′-furyl)-indazole] yielded a Maximal load [1, 2] of 100.5 ± 3.0 N, a Ultimate load [1, 2] of 79.8 ± 3.3 N and a Ultimate stress [1, 2] of 14.6 ± 2.5 Mpa. The “ultimate stress and Young's modulus of femurs compared with sham-operated controls” value ([1]; treated OVX rats) was “only slightly lower” and the “cell surface expression of α5 and β1 integrins” value (α5 and β1 integrins) was “increased”.
